Results as given in patent US7411003B1, “Inhibition of Hepatitis B virus by cyclohexenone compounds from Antrodia camphorata” (Golden Biotechnology Corporation, priority 2007, dated 2008).

What was measured:
[1] = system: HbeAg; assay: Synthesis/secretion of HbeAg in hepatoma cell line, semi-quantitative ELISA; assay type: cell-based, hepatitis B virus; conditions: HepG2 2.2.1 cells, 22 hours
Experimental: (§1) The effects of cyclohexenone compounds of Antrodia camphorata purified from Example 1 on synthesis of HbsAg and HbeAg were tested in this example. The compound 4-hydroxy-2,3-dimethoxy-6-methyl-5(3,7,11-trimethyl-dodeca-2,6,10-trienyl)-cyclohex-2-enone from example 1 was added into the culture media of hepatoma cell line HepG2 2.2.1 to determine the synthesis of HbsAg and HbeAg with the semi-quantitative enzyme-linked immunoabsorbent assay (ELISA). These two makers were used to assess the effectiveness of cyclohexenone in HBV inhibition. […]
(§2) The HepG2 2.2.1 cells were cultivated in minimum essential medium (MEM, Gibco Co., USA) containing 12 essential amino acids, glutamine, 8 vitamins, and supplemented with 10% fetal bovine serum and 200 μg/ml of antibiotic G418 for 24 hours. […] The assay was based on formation of sandwich complexes of antibody-antigen-antibody/enzyme and stained with O-phenylenediamine (OPD) color development solution and the results were expressed as absorbance units at 450 nm. Specimens with absorbance values above the cut off value are taken as positive for HbsAg and HBeAg. […]

[2] = system: hepatoma cell line HepG2 2.2.15; assay: In vitro cytotoxic test on hepatoma cell line, MTT assay, survival rates; assay type: cell-based, human; conditions: HepG2 2.2.1 cells, 10 μg/ml, 22 hours, compared with blank group
Experimental: Hepatoma cell inhibiting effects of cyclohexenone compounds of Antrodia camphorata from example 1 were assessed according to the anticancer-drug screening model of National Cancer Institute (NCI). The compound 4-hydroxy-2,3-dimethoxy-6-methyl-5(3,7,11-trimethyl-dodeca-2,6,10-trienyl)-cyclohex-2-enone from example 1 was added into the culture media of hepatoma cell line HepG2 2.2.15 to test the survival rates. Survival of cells was analyzed using MTT assay. HepG2 2.2.15 cell line was derived from human hepatoma, which can secrete infectious HBV.
MTT assay is commonly used to analyze cell proliferation, survival rate of viable cells and cytotoxicity. MTT (3[4,5-dimethylthiazol-2-yl]-2,5-diphenyltetrazolium bromide) is a yellow dye which can be converted to water-insoluble purple formazan on the reductive cleavage of its tetrazolium ring by the succinate tetrazolium reductase in mitrochondria of cells. The amount of formazan produced is used to detect the number of viable cells and calculate the survival rates.
The HepG2 2.2.1 cells were cultivated in minimum essential medium (MEM, Gibco Co., USA) containing 12 essential amino acids, glutamine, 8 vitamins, and supplemented with 10% fetal bovine serum and 200 μg/ml of antibiotic G418 for 24 hours. […] The absorbances were measured at 570 nm with an ELISA Reader and compared with that of the blank group to calculate the survival rates.

[3] = system: HbsAg; assay: Synthesis/secretion of HbsAg in hepatoma cell line, semi-quantitative ELISA; assay type: cell-based, hepatitis B virus; conditions: HepG2 2.2.1 cells, 22 hours
Experimental: as §1, §2

## COC1=C(OC)C(O)C(C/C=C(\C)CC/C=C(\C)CCC=C(C)C)C(C)C1=O (centres unmarked) [cyclohexenone from Antrodia camphorata, 4-hydroxy-2,3-dimethoxy-6-methyl-5(3,7,11-trimethyl-dodeca-2,6,10-trienyl)-cyclohex-2-enone]
[1]; 0.1 μg/ml
  Synthesis of HbeAg: below 84%
[1]; 1 μg/ml
  Synthesis of HbeAg (decrease could reach to as low as): 57%
[2]
  cell survival rates: lower than 81%
[3]; 0.1 μg/ml
  Synthesis of HbsAg: below 60%
[3]; 10 μg/ml
  Synthesis of HbsAg (decrease could reach to as low as): 28%
